Reference: patent EP1075256B1, “ARYLHYDROCARBON RECEPTOR LIGAND ANTAGONISTS” (priority 1998, dated 1999)

What was measured:
récepteur AhR = molecular target: T1, récepteur AhR (Oryctolagus cuniculus, UniProt O02747); test: Competition with tritiated dioxin for binding to the AhR receptor in rabbit liver cytosol; design: species or system lapin; details: for Kd: displacement of labelled dioxin, read-out: Kd apparent (converted)
T1 construct: On a utilisé un cytosol de foie de lapin pour ces études de compétition; from tissue; host or cells: rabbit liver cytosol
T1 sequence (O02747 1-847): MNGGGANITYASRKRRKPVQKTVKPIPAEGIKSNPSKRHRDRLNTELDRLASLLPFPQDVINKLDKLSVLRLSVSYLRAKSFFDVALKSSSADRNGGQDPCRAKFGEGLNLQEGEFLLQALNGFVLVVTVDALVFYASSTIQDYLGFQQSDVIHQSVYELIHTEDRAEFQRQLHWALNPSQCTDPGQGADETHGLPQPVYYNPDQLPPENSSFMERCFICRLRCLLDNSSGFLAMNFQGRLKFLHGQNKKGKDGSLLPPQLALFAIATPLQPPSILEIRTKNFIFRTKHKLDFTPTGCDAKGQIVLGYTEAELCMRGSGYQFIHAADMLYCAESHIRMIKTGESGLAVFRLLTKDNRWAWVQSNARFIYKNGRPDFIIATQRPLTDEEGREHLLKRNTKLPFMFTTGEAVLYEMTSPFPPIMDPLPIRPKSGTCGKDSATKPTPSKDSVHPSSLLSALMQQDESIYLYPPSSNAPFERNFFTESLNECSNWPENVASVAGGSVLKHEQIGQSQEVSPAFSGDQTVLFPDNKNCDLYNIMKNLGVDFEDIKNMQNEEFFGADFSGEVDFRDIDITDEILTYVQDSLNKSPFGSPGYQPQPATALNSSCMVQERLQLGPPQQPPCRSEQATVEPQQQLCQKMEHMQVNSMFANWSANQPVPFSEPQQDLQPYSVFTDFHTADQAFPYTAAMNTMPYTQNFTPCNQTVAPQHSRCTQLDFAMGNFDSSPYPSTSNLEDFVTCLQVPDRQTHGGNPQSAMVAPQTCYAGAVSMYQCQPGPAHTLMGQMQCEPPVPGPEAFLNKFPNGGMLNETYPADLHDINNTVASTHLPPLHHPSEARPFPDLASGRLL

[1] = test system: éléments de réponse à la progestérone (PRE); test: Transient CAT reporter under progesterone response element (PRE) in T-47D cells; assay type: cell-based
Excerpt: (§1) On a transfecté de façon transitoire les cellules T-47D avec différentes constructions CAT sous contrôle de l'élément de réponse à l'estradiol (ERE) du gène de la vitellogénine ou celui, plus faible, du gène du récepteur de la progestérone, ainsi que des éléments de réponse à la progestérone (PRE) et aux androgènes (ARE) du virus murin MMTV et d'un élément de réponse à la vitamine D (VDRE) synthétique.

[2] = test system: élément de réponse à la dioxine; test: CAT reporter gene under control of a dioxin response element (DRE), stably transfected T-47D cells; assay type: cell-based; details: figure 1A, 10^-6 M de Resvératrol
Excerpt: Les inventeurs ont entrepris d'identifier de nouveaux ligands du récepteur AhR. Pour ce faire, ils ont transfecté de façon stable une lignée de cellules de cancer du sein, T-47D, avec un gène rapporteur (la trans-acétylase du chloramphénicol, ou CAT) placé sous le contrôle d'un élément de réponse à la dioxine ou DRE. La lignée T-47D est connue pour contenir un taux élevé de récepteur AhR (170 femtomoles/mg protéines).
On transfecte de manière stable la lignée T-47D de cellules de cancer du sein avec un gène rapporteur, la trans-acétylase du chloramphénicol, CAT en abrégé, placé sous le contrôle d'un élément de réponse à la dioxine.
On constate que l'inhibition observée est dose-dépendante.

[3] = test system: NAD(P)H quinone réductase; test: NAD(P)H quinone reductase (NQOR) activity in T-47D cells; assay type: cell-based; details: 10^-6 M, dioxine 10^-9 M, 72 h
Excerpt: L'activité NQOR correspondante exprimée en nanomoles de cytochrome c réduit, par mg de protéines, par min, est donnée sur la figure 5.

cyp 1A1 = test: In vivo induction of cyp 1A1 in rats by BaP/DMBA (immunoblot of lung and kidney); design: species or system rats Sprague-Dawley; details: equal concentration of substances (1 mg/kg BaP/DMBA plus 1 mg/kg resvératrol)
Protocol: Des rats Sprague-Dawley femelle ont été traités par une combinaison de Benzol [a]pyrène et de DMBA (diméthylbenzanthracène), deux ligands AhR présents dans la fumée de cigarette. Des expériences préliminaires ont montré que cyp 1A1 était induit à partir de 1 mg/kg des deux ligands administrés ensemble. […] Les animaux ont été sacrifiés et les organes prélevés. Des extraits cellulaires totaux ont été préparés et analysés par immunoblot pour détecter l'expression de cyp 1A1 dans ces tissus.

[4] = test system: élément de réponse à l'estradiol (ERE) du gène de la vitellogénine; test: Transient CAT reporter under estradiol response element (ERE) in T-47D cells; assay type: cell-based
Excerpt: as §1

[5] = test system: éléments de réponse aux androgènes (ARE); test: Transient CAT reporter under androgen response element (ARE) in T-47D cells; assay type: cell-based
Excerpt: as §1

[6] = test system: élément de réponse à la vitamine D (VDRE); test: Transient CAT reporter under vitamin D response element (VDRE) in T-47D cells; assay type: cell-based
Excerpt: as §1

[7] = test system: promoteur de la séquence répétée (LTR) de VIH-1; test: HIV-1 LTR promoter CAT construct (-452/+77) transfected in T-47D cells; assay type: cell-based; details: dioxine 10^-9 M
Excerpt: On a transfecté les cellules T-47D avec une construction CAT contenant ce promoteur (-452/+77).

CYP1A1 = test: Induction of Cyp1A1 protein by dioxin in T-47D cells (Western blot); assay type: cell-based; details: for effets agonistes / antagonistes: 10^-5M
Protocol: Les cellules sont collectées et lavées dans le PBS, puis lysées par fusion-congélation répétée en conditions isotoniques. 75 µg de protéines sont analysées par électrophorèse en gel de polyacrylamide en conditions dénaturantes. Le gel est transféré sur une membrane de nylon. La membrane est saturée avec 5 % de lait écrémé et incubée avec un anticorps polyclonal de lapin (Daiichi Pure Chemicals Co, Japan) contre Cyp1A1. Les immuncomplexes sont détectés par chimioluminescence avec le kit Renaissance (DuPont). La figure 2 correspond à la photo du Western blot. La flèche montre la bande spécifique de Cyp1A1, les astérisques signalent des bandes non-spécifiques.

| SMILES | affinité compared with indole-3-carbinol (récepteur AhR) | effet sur PRE [1] | effet sur l'induction de CAT par TCDD [2] | répression de l'induction indirecte des enzymes de phase II (NAD(P)H quinone réductase) provoquée par la dioxine [3] | suppression de l'induction de cyp 1A1 in vivo (cyp 1A1) | effet estrogénique sur l'ERE, fraction of the effect of estradiol ([4]; T-47D, CAT) | effet estrogénique, fraction of the effect of 10^-10 M estradiol ([4]; from 10^-5 M Resvératrol) | effet sur ARE [5] | effet sur VDRE [6] | suppression de l'induction du promoteur de VIH par la dioxine ([7]; Resvératrol 10^-6 M) | effets agonistes / antagonistes (CYP1A1) | inhibition at 1 µM (CYP1A1; Homo sapiens, T47D, 48 h, read-out: inhibition de l'induction de la protéine CYP1A1) [%] | excès nécessaire pour observer l'inhibition ex vivo (CYP1A1; ex vivo) [fois] | effet inhibiteur compared with α-naphthoflavone (CYP1A1; induction of CYP1A1 by TCDD, T-47D) | Kd (récepteur AhR) [nM] | fold induction at 0.001 µM ([7]; Homo sapiens, T47D, T-47D, read-out: induction du promoteur de VIH (facteur)) |
| --- | --- | --- | --- | --- | --- | --- | --- | --- | --- | --- | --- | --- | --- | --- | --- | --- |
| Oc1ccc(/C=C/c2cc(O)cc(O)c2)cc1 [Resvératrol, trans-resvératrol] | affinité plus forte | aucun effet | effet inhibiteur | ne répriment l'induction indirecte | totalement supprimée | 1/500.000 | 1/5 | aucun effet | aucun effet | totalement supprimée | pur antagoniste | ~60 | 5000 | légérement inférieur |  |  |
| Clc1cc2c(cc1Cl)Oc1cc(Cl)c(Cl)cc1O2 [TCDD, 2,3,7,8-tétrachlorodibenzo (p)dioxine, reference compound] |  |  |  |  |  |  |  |  |  |  |  |  |  |  | 3 | 3 |
| O=c1cc(-c2ccccc2)oc2c1ccc1ccccc12 [α-NF, alpha-7,8-benzoflavone, reference compound] |  |  |  | ne répriment l'induction indirecte |  |  |  |  |  |  | effets agonistes autant qu'antagonistes |  |  |  | 3 |  |
